Measurements taken from article PMC3038857, “Using Nuclear Receptor Activity to Stratify Hepatocarcinogens” (PLoS ONE, 2011).

Key:
[1] = test system: CYP3A4; experiment: CLZD_CYP3A4: Change in expression of CYP3A4 (primary human hepatocytes); format: cell-based; conditions: 24 hr
Summary of the method: (§1)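 Chemicals are tested in human hepatocyte primary cultures over 0.004-40 µM (5 concentrations) for 6, 24 or 48 hr, and concentration- and time-dependent transcript changes are read by quantitative nuclease protection assay.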

[2] = biological target: T1, PPARG (peroxisome proliferator-activated receptor gamma) (Homo sapiens, UniProt P37231); experiment: ATG_PPARg_TRANS: Factorial reporter gene assay (HepG2); format: cell-based
T1 construct: expressed in transfected cells; host or cells: HepG2
T1 sequence (P37231 1-505): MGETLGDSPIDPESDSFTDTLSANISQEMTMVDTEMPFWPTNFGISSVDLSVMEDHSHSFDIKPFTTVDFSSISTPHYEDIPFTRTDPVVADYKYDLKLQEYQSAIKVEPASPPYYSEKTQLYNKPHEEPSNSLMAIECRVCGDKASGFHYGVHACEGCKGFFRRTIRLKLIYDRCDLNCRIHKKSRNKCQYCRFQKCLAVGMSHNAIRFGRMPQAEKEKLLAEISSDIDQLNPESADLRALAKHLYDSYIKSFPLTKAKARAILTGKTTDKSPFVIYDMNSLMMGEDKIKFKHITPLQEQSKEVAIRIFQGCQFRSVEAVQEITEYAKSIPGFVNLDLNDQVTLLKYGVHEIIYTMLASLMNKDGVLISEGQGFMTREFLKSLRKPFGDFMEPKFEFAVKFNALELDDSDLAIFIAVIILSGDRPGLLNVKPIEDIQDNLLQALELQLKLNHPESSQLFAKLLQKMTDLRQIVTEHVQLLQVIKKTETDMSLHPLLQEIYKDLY
Summary of the method: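 Mammalian one-hybrid trans reporters (25 MRTUs) measured ERRg, FXR and PPARg; PXRE used cis reporters from a 48-site MRTU library. Both were run in HepG2. Dosing: seven concentrations, MTC as the highest, three-fold dilution series.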

[3] = test system: ABCB1; experiment: CLZD_ABCB1: Change in expression of ABCB1 (primary human hepatocytes); format: cell-based; conditions: 24 hr
Summary of the method: as §1

[4] = biological target: Human ER (ESR1) (Homo sapiens, UniProt P03372); experiment: NVS_NR_hER: Human ER 3H-Estradiol (cell-free HTS); format: binding; conditions: scale not given, looks like -log10 of molar active concentration, 0 = no activity
Sequence of Human ER (ESR1) (P03372 whole entry): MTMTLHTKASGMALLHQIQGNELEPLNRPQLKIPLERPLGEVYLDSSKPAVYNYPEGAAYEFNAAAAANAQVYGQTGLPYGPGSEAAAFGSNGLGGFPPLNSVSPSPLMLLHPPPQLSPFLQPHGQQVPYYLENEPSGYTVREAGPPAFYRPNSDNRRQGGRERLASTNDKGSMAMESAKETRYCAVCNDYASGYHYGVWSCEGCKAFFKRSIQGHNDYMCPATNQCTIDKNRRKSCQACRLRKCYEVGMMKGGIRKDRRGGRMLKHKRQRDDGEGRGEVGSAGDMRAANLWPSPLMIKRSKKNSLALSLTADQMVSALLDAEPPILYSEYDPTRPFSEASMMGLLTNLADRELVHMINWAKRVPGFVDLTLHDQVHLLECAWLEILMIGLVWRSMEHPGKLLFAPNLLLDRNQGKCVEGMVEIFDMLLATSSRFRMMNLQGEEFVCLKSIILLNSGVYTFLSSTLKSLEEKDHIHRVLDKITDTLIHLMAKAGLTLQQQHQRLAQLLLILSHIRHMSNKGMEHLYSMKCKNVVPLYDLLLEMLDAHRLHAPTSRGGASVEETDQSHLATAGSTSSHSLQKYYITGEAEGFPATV
Description: These are a collection of biochemical assays measuring binding constants and enzyme inhibition values. Chemicals were initially screened at a single concentration in duplicate wells at a concentration of 10 [drawing 63] M for cytochrome P-450 assays and 25 [drawing 64] M for all others. […] These assays were run by Caliper Life Sciences (Hanover, MD) under contract to EPA. Short assay descriptions are available at: http://www.caliperls.com/products/contract-research/in-vitro/.
Cell-free HTS Assays: A collection of biochemical assays measuring binding constants and enzyme inhibition values. […] These assays were run by Caliper Life Sciences (Hanover, MD) under contract to EPA. Short assay descriptions are available at http://www.caliperls.com/products/contract-research/in-vitro/. Values for all endpoints were imported into GeneData Screener (Basel, Switzerland) and normalised to solvent controls from the same plate as the tested compounds and expressed as percent of neutral control. Concentration-response curves were fit in GeneData Screener (Basel, Switzerland) Condeseo module using the Hill equation and AC50 values were determined. […] Detailed description of the methods, data and analysis methods for this dataset are described in a separate publication.

[5] = test system: CYP1A1; experiment: CLZD_CYP1A1: Change in expression of CYP1A1 (primary human hepatocytes); format: cell-based; conditions: 24 hr
Summary of the method: as §1

[6] = test system: ABCB11; experiment: CLZD_ABCB11: Change in expression of ABCB11 (primary human hepatocytes); format: cell-based; conditions: 24 hr
Summary of the method: as §1

[7] = scale not given, looks like -log10 of molar active concentration, 0 = no activity
[8] = HepG2, scale not given, looks like -log10 of molar active concentration, 0 = no activity

Compound | CLZD_CYP3A4_24 [1, 7] | ATG_PPARg_TRANS [2, 8] | CLZD_ABCB1_24 [3, 7] | NVS_NR_hER [4] | CLZD_CYP1A1_24 [5, 7] | CLZD_ABCB11_24 [6, 7] | CLZD_CYP3A4_24 [1] | ATG_PPARg_TRANS ([2]; HepG2 reporter) | CLZD_CYP1A1_24 [5] | CLZD_ABCB11_24 [6] | ATG_PPARg_TRANS ([2]; HepG2) | CLZD_ABCB1_24 [3]
CCSC(=O)N(CC(C)C)CC(C)C [r49] | 0 | 0 | 0 | 0 | 0 | 0 |  |  |  |  |  | 
CCc1nn(C)c(C(=O)NCc2ccc(C(C)(C)C)cc2)c1Cl [r291] |  |  |  |  |  |  | 5.218 | 5.31 | 4.87 | 4.551 |  | 
O=C1C2CC=CCC2C(=O)N1SC(Cl)(Cl)Cl (stereo not shown) [r51] | 0 | 0 | 0 | 0 | 0 | 0 |  |  |  |  |  | 
Cc1c(COC(=O)C2C(/C=C(\Cl)C(F)(F)F)C2(C)C)cccc1-c1ccccc1 (stereo not shown) [r39] | 4.923 | 0 | 4.829 | 0 | 4.56 | 0 |  |  |  |  |  | 
CCN(CC)C(=O)C(C)Oc1cccc2ccccc12 (stereo not shown) [row 219] |  |  |  |  |  |  | 4.548 |  | 4.557 |  | 4.301 | 
CC(C)OC(=O)Nc1cccc(Cl)c1 [r59] | 4.864 | 4.301 | 0 | 0 | 0 | 0 |  |  |  |  |  | 
COc1cc(Cl)c(OC)cc1Cl [r57] | 0 | 0 | 0 | 0 | 0 | 0 |  |  |  |  |  | 
CNC(=O)Oc1cccc2ccccc12 [r52] |  |  | 0 | 0 |  | 0 |  |  |  |  |  | 
CCc1cccc(C)c1N(C(=O)CCl)C(C)COC (stereo not shown) [row 208] |  |  |  |  |  |  | 4.911 |  |  |  | 4.854 | 
CC(C)(c1ccc(O)cc1)c1ccc(O)cc1 [r40] | 0 | 4.569 | 0 | 6.151 | 0 | 0 |  |  |  |  |  | 
O=C(Nc1ccccc1-c1ccc(Cl)cc1)c1cccnc1Cl [r42] | 4.98 | 4.62 | 0 | 0 | 4.852 | 0 |  |  |  |  |  | 
CCCC1COC(Cn2cncn2)(c2ccc(Cl)cc2Cl)O1 (stereo not shown) [r262] |  |  |  |  |  |  | 6.273 |  | 4.952 |  |  | 5.099
CC1=C(C(=O)Nc2ccccc2)SCCO1 [r53] | 5.078 | 4.119 | 0 | 0 | 4.822 | 0 |  |  |  |  |  | 
COc1cccc(C(=O)NN(C(=O)c2cc(C)cc(C)c2)C(C)(C)C)c1C [row 202] |  |  |  |  |  |  | 5.142 |  |  |  |  | 
CCCN(CCC)c1c([N+](=O)[O-])cc(C(F)(F)F)c(N)c1[N+](=O)[O-] [r252] |  |  |  |  |  |  | 5.248 |  | 5.053 |  |  | 
CC(C)=CC1C(C(=O)OCc2coc(Cc3ccccc3)c2)C1(C)C (stereo not shown) [r280] |  |  |  |  |  |  |  | 4.495 |  |  |  | 
Nc1cnn(-c2ccccc2)c(=O)c1Cl [r56] | 0 | 4.409 | 0 | 0 | 0 | 0 |  |  |  |  |  | 
COc1nc(C)nc(NC(=O)NS(=O)(=O)c2ccccc2Cl)n1 [r63] | 0 | 0 | 0 | 0 | 0 | 0 |  |  |  |  |  | 

Compound | CLZD_CYP3A4_24 [1, 7] | ATG_PPARg_TRANS [2, 8] | CLZD_ABCB1_24 [3, 7] | NVS_NR_hER [4] | CLZD_CYP1A1_24 [5, 7] | CLZD_ABCB11_24 [6, 7] | CLZD_CYP3A4_24 [1] | ATG_PPARg_TRANS ([2]; HepG2 reporter) | CLZD_CYP1A1_24 [5] | CLZD_ABCB11_24 [6] | ATG_PPARg_TRANS ([2]; HepG2) | CLZD_ABCB1_24 [3]
C#CCC1=C(C)[C@H](OC(=O)[C@H]2[C@H](C=C(C)C)C2(C)C)CC1=O [r249] |  |  |  |  |  |  | 5.185 |  |  |  | 4.357 | 
OB(O)O [r41] |  | 0 | 0 | 0 |  | 0 |  |  |  |  |  | 
C=CCOC(=O)C(C)(C)OC(=O)c1cc(-n2c(=O)cc(C(F)(F)F)n(C)c2=O)ccc1Cl [r47] |  | 0 | 0 | 0 |  | 0 |  |  |  |  |  | 
CCCCOCN(C(=O)CCl)c1c(CC)cccc1CC [r46] | 0 | 5.678 | 0 | 0 | 5.141 | 0 |  |  |  |  |  | 
CCc1ccc(C(=O)NN(C(=O)c2cc(C)cc(C)c2)C(C)(C)C)cc1 [r290] |  |  |  |  |  |  | 5.287 | 5.201 | 5.222 |  |  | 
CC(C)N1C(=O)c2ccccc2NS1(=O)=O [r37] | 0 | 0 | 0 | 0 | 0 | 0 |  |  |  |  |  | 
COc1nc(C)nc(NC(=O)NS(=O)(=O)c2ccccc2Cl)n1 [r62] | 0 | 0 | 0 | 0 | 0 | 0 |  |  |  |  |  | 
COC(=O)c1ccccc1CS(=O)(=O)NC(=O)Nc1nc(OC)cc(OC)n1 [r33] | 0 | 0 | 0 | 0 | 0 | 0 |  |  |  |  |  | 
CC(C)Oc1cc(-n2nc(C(C)(C)C)oc2=O)c(Cl)cc1Cl [row 225] |  |  |  |  |  |  | 6.246 |  | 4.998 |  | 4.31 | 
CSc1nc(NC(C)C)nc(NC(C)C)n1 [r256] |  |  |  |  |  |  | 5.143 |  | 5.071 |  | 4.284 | 
CCC(C)n1c(=O)[nH]c(C)c(Br)c1=O (stereo not shown) [r43] | 5.055 | 0 | 0 | 0 | 4.897 | 0 |  |  |  |  |  | 
COc1ccc(-c2ccccc2)cc1NNC(=O)OC(C)C [r38] | 0 | 4.301 | 0 | 0 | 4.891 | 0 |  |  |  |  |  | 
CC(C)N1C(=O)N(c2ccccc2)CS/C1=N\C(C)(C)C [r45] | 4.966 | 0 | 4.531 | 0 | 0 | 0 |  |  |  |  |  | 
Cc1ccccc1CO[C@@H]1C[C@@]2(C(C)C)CC[C@]1(C)O2 [r64] | 5.116 | 4.377 | 0 |  | 0 | 0 |  |  |  |  |  | 
CCC(C)Nc1c([N+](=O)[O-])cc(C(C)(C)C)cc1[N+](=O)[O-] (stereo not shown) [r48] | 5.288 | 4.523 | 0 | 0 | 0 | 0 |  |  |  |  |  | 
CCOC(=O)C(Cl)Cc1cc(-n2nc(C)n(C(F)F)c2=O)c(F)cc1Cl (stereo not shown) [r54] | 4.919 | 4.319 | 0 | 0 | 0 | 0 |  |  |  |  |  | 
N#Cc1cc(Br)c(O)c(Br)c1 [r44] | 0 | 4.398 | 0 | 0 | 0 | 0 |  |  |  |  |  | 
N#Cc1c(Cl)c(Cl)c(Cl)c(C#N)c1Cl [r58] | 0 | 0 | 0 | 0 | 0 | 0 |  |  |  |  |  | 
